A melting point compilation (Tetko et al.; mined from patent text by program, amines drawn as free bases though some values may be those of a salt)

melting point [°C]	SMILES
95 to 102	COC(=O)C1=C(C)NC(C)=C(C(=O)OC(C)CCl)C1c1cccc([N+](=O)[O-])c1 (stereo not drawn)
176 to 178	O=C1c2ccc(C#Cc3cccc4ccccc34)cc2C(=O)N1c1ccccc1
253	Cc1cc(NC(=O)C2=C(O)c3ccc4ccccc4c3S(=O)(=O)N2C)no1
86 to 87	COC(=O)[C@@H]1O[C@H]1c1ccc(OC)cc1
256 to 258	CCOC(=O)c1cc2cc(NC(C)=O)ccc2nn1
202 to 204	N#CCC(=O)NC1CCCCC1NC(=O)CC#N (stereo not drawn)
140 to 160	CCC(CNC(=S)Nc1cccc(-c2c[nH]cn2)c1)N(Cc1ccc(Cl)c(Cl)c1)c1ccc(Br)cn1 (stereo not drawn)
113 to 114	Cc1cc(Oc2cccc(C(F)(F)F)c2)nn1C(=O)Nc1ccc(Cl)cc1Cl
98 to 100	COc1cc(C(C)=O)ccc1OCCN1CCN(c2nsc3ccccc23)CC1
213 to 214	NC(=O)c1c(Cl)cn2c1CN(S(=O)(=O)c1ccc(-c3ccccn3)s1)CC2
231 to 232	COc1ccc2[nH]c(=O)cc(CCCl)c2c1
106	CN(CCCN)CC(O)C(O)C(O)C(O)CO (stereo not drawn)
173 to 174	CN1CCC(N2C(=O)c3ccccc3Oc3ccccc32)CC1
97 to 98.5	CC(C)(C)OC(=O)NCCc1cccc(OCCC2Oc3ccccc3N(Cc3ccc(Cl)cc3)C2=O)c1 (stereo not drawn)
146	N#CNC(=NCCc1ccccc1Cl)c1cncc(NCc2ccccc2)c1
240 to 241	Cc1ccc(OC2COc3ccc(O)cc3C2O)cn1 (stereo not drawn)
163	CCc1nc2c(Cl)nc(C)cc2n1-c1ccc(CCNC(=O)NS(=O)(=O)c2ccc(C)cc2)cc1
208 to 210	c1cc2cc(Nc3ncnc4cnc(N5CCOCC5)nc34)ccc2cn1
244 to 247	CCCCCCNC1=NS(=O)(=O)c2ccc(Cl)cc2N1
72	COc1ccc(C(C#N)=NOS(=O)(=O)C(C)C)cc1
88.5 to 90.5	COC(=O)c1ccc(C(=O)Oc2ccc([Si](C)(C)C)cc2C(C)=O)cc1
175 to 176	CN1C(=O)C2CC(c3ccccc3)(C2)C1=O
255 to 256	O=C(Nc1cc(Cl)cc(Cl)c1)c1ccc(Cl)cc1O
189	CCOC(=O)NC1=NN(c2cccc(Cl)c2)C(=O)C1
79	CCCCCCCCCCCCCCCCCCOC(=O)c1ccc(C)c(N)c1

melting point [°C]	SMILES
70 to 75	COc1c(C)cccc1C(=O)O
> 250	O=C1N(Cc2ccc(C(F)(F)F)o2)c2ccccc2C1(O)c1nc2c(cc1O)OCO2 (stereo not drawn)
180	Oc1cncc2ccsc12
165 to 167	COC(=O)c1cc(C)cc(OC)c1C1=C(OC)C(=O)c2c(O)cccc2C1=O
243 to 248	CCOC(=O)c1cn(-c2ccc(F)cc2F)c2nc(O)c(F)cc2c1=O
207 to 208	O=C(O)Cc1ccc(NC(=O)c2ccccc2)cc1
89 to 91	CC(=O)OCC1OC(n2cc(C3=C(c4cn(C(=O)OC(C)(C)C)c5ccccc45)C(=O)N(C)C3=O)c3cccnc32)C(OC(C)=O)C(OC(C)=O)C1OC(C)=O (stereo not drawn)
180 to 182	CC(C)(C)c1ccc(Nc2nnc(Cc3cnc(O)c(-c4ccco4)c3)c3ccccc23)cc1
76	CN(C)CC1(CO)C(O)C(O)C(O)CN1C (stereo not drawn)
80 to 84	CC(=O)OCC1(c2ccc(F)cc2)CCC(=O)CC1
> 250	Oc1ccc2c(nc(C(F)F)n2-c2nc(N3CCOCC3)nc(N3CCOCC3)n2)c1Cl
142 to 144	O=C(NO)c1ccc(OC(=O)C2(c3ccccc3)CCCCC2)cc1
170	COc1ccc2c(c1)ncc1c(=O)n(-c3ccccc3)oc12
150	CC1CCCCN1C(=O)c1nc(-c2ccccc2)nc2ccccc12 (stereo not drawn)
106 to 108	COC1(c2csc(Sc3ccc4c(c3)CCC(=O)N4C)c2)CCOCC1
130 to 132	C=CCC1=C(C)C(O)CC1=O (stereo not drawn)
162 to 164	COc1cc(C(=O)NCC2NC(C)Cc3ccccc32)cc(OC)c1OC (stereo not drawn)
146 to 148	CC(C)(C)c1ccccc1N1CCN(C(=O)c2ncoc2-c2ccccc2)CC1
196 to 197	COc1ccccc1N1CCN(CCn2c(=O)[nH]c3sc(C)c(C)c3c2=O)CC1
164	Cc1c(-c2ncc([N+](=O)[O-])n2C)cnn1-c1ccc(Cl)cc1
128 to 129	CCOC(=O)C(=Cc1ccccn1)C(=O)c1ccc(F)cc1
77 to 79	C#CCOC(=O)C(C#N)=C(SC)SC
104 to 107	CCCn1c(COCc2ccc(OC)cc2)nc(C(C)C)c1Sc1cc(Cl)cc(Cl)c1
134 to 136	Cc1cc(C)cc(NC(=O)[C@@H](C)N)c1
151 to 152	O=c1cc(C(F)(F)F)ccn1-c1c(Cl)cc(CO)cc1Cl

melting point [°C]	SMILES
137 to 138	Cc1ccc(C2(O)CCNCC2)cc1
65 to 66	CC(C)C1=NC2=NC(SCc3ccccc3)(SCc3ccccc3)NN2C=C1
144	Cc1ncc(CC(=O)O)s1
84 to 86	COc1cc(OC)c(C2=NC(C)(C)CO2)cc1OC
175 to 177	CC(=O)OCCOc1ccc(C=Cc2ccc(S(C)(=O)=O)cc2)cc1
181 to 182	O=C(Cc1ccccc1)c1cc(O)c(O)c([N+](=O)[O-])c1
250 to 252	CCCc1c(/C=C/c2ccccc2)nc2ccc(C(=O)O)cn2c1=O
54 to 58	C=C(c1ccccc1)C(c1ccc(F)cc1)C(O)n1ncnc1S (stereo not drawn)
122 to 123	COc1ccc(CS[C@H]2C[C@@H](C(N)=O)N(CCF)C2)cc1
190 to 196	Cc1cccc(C)c1N1C(=O)CS/C1=N\C(=O)Nc1ccc(-c2ncn(-c3ccc(OC(F)(F)F)cc3)n2)cc1
> 300	Cc1[nH]c(=O)c2c(N)c([N+](=O)[O-])ccc2c1C
248 to 250	CN1C(=O)N2[C@H](c3cccc(O)c3)c3[nH]c4ccc(Cl)cc4c3C[C@@]2(C)C1=O (racemic)
84 to 86	CC1(C)CCC(=O)CC1S(=O)(=O)c1ccccc1 (stereo not drawn)
96 to 97	COc1ccc(NC(=O)OC(C)(C)C)c(C(=O)C2CC2)c1
97.5 to 98.5	COc1ccc(-n2nc(C(C)CCO)cc2-c2ccc(Cl)cc2)cc1 (stereo not drawn)
179	CC(=O)OC1CSC(Oc2ccc(-c3ccnc(F)c3)nc2)C(OC(C)=O)C1OC(C)=O (stereo not drawn)
> 250	O=c1[nH]c2cccc(OCCN3CCc4ccccc4C3)c2[nH]c1=O
229 to 230	COC(=O)C1Cc2c([nH]c3ccccc23)C(C)N1C(=S)SC (stereo not drawn)
126 to 128	CCOCCNC(=O)COc1ccn2nc(-c3ccccc3)c(-c3ccc(=O)n(C(C)C)n3)c2c1
182 to 183	Cc1nn(-c2ccccn2)c(-c2ccccc2)c1CC(=O)O
139 to 142	COc1cc(OC)nc(OC2C(=O)OCC2(C)C)n1 (stereo not drawn)
148 to 149	COC(=O)c1ccc(Br)c(S(C)(=O)=O)c1
123 to 124	COc1cc(NC(C)=O)cc(C(F)(F)F)c1
218	Nc1nc(N)c(Br)c(OCCOCP(=O)(O)O)n1
256	COc1ccc2nc(C(F)(F)F)c(C(=O)O)c(O)c2c1

melting point [°C]	SMILES
132 to 133	C=CCn1c(=O)n(CCCCO)c2nc(N)nc(Cl)c21
80	C=CCOC(=O)c1ccc(N=Cc2ccc3c(c2Cl)C(C)(C)CCC3(C)C)cc1
139 to 141	O=[N+]([O-])c1c(Br)nn(Cc2ccc(Cl)cc2)c1NCc1ccccc1
136 to 138	CC(=O)NCC1CC1c1c(-c2cccnc2)ccc2nn(C)cc12 (stereo not drawn)
120 to 121	CCCOC(Nc1ccccc1)(OCCC)c1ccnc(C(=O)c2ccc(C)cc2)c1
197 to 199	Ic1ccc2c(c1)ncn2-c1cccc(-c2cncnc2)c1
85 to 86	CCOC(=O)C1=C(C=O)NC(C=O)=C(C(=O)OCC)C1c1ccccc1Cl
124 to 125	COCCOc1ccc(CN2C(=O)C3(COc4cc5c(cc43)OCCO5)c3ccccc32)cc1 (stereo not drawn)
192	O=C1C=C(O)CC(c2ccc3sccc3c2)C1 (stereo not drawn)
88 to 90	OCCN(CCO)CCCNc1nc2cc(Cl)c(Cl)cc2nc1-c1ccccn1
136 to 138	CCCc1nc2c(N)nc3ccccc3c2n1CCCC(=O)CC(C)C
108	CCCc1cc(-c2ccccc2)ccc1C(=O)O
148 to 150	COC(=O)C1=C(C)NC(C)=C(C(=O)OCC2CCCO2)C1c1ccc(Cl)c([N+](=O)[O-])c1 (stereo not drawn)
198 to 199	COC(=O)c1ccc(N)cc1S(=O)(=O)NC(C)(C)C
215 to 217	CC(C)n1nc(-c2c(OCC(=O)O)nc(N)nc2-c2ccccc2)ccc1=O
187 to 189	Cc1ccc(-c2ccc3c(c2)C=C(C(=O)Nc2ccc(CN4CCCCC4)cc2)CC3)cc1
121 to 123	CCC(=O)C(=O)NC(=O)[C@@H](N)Cc1ccccc1
267 to 268	Nc1ccc(Cc2n[nH]c(=O)o2)cc1
112 to 115	Oc1c(C(O)(C(F)(F)F)C(F)(F)F)cc(Br)c2ccccc12
103 to 105	OC1CCCCC1Oc1ccc(Oc2ccccc2)cc1 (stereo not drawn)
142	O[C@@H]1CN=C(c2ccccc2F)O[C@H]1c1ccccc1 (racemic)
121 to 123	CCCCC(OC)c1c(C(C)C)nc(C(C)C)c(CO)c1-c1ccc(F)cc1 (stereo not drawn)
152 to 155	CCOc1c(C)c(N2CCN(c3ccc(C)cc3)CC2)c(C)c2c1OC(C)(C)C2
168 to 171	CC(C)(C)c1cc(-c2nc(S)sc2-c2ccccc2)cc(C(C)(C)C)c1O
243	O=c1ccc(O)nn1-c1ccc(OC(F)(F)F)cc1

SMILES	melting point [°C]
NC(=O)C(CCN1CC[C@@H](OCc2cccc(Cl)c2)C1)(c1ccccc1)c1ccccc1	91 to 93
CC1=C2CCC3C(CCC4(C)C3CCC4(C)O)C2(C)CC(=CO)C1=O (stereo not drawn)	182 to 188
NCc1nc(-c2ncn3c2[C@@H]2CCN2C(=O)c2c(Cl)cccc2-3)no1	212 to 214
